# Source: patent US4281136A, “2-Alkyl-3-haloisothiazolium salts and their derivatives” (Givaudan Corporation, priority 1978, dated 1981)
# Like-named read-outs stand apart in the source and are kept apart here.
# Experiments:
# P. piscarium = test: slimicide for pulp and paper mill water systems, P. piscarium; format: cell-based
# Experimental: (§1) Various quantities of a 6% solution of this compound in dimethylformamide were incorporated into 24 ml of a test substrate composed as follows:
# (§2) 8.4 g Whatman No. 2 cellulose
# (§3) 1.0 g Nutrient Broth, Difco
# (§4) 10.0 ml Mersize Rm 70R (Monsanto)
# (§5) The samples were inoculated with four different organisms and incubated at 28° C. At weekly intervals the samples were examined for the presence of microbial growth and reinoculated during a total incubation period of four weeks.
# (§6) The test of Example V was used to determine the effectiveness of 4,5-dichloro-3-dicyanomethylene-2-methyl-4-isothiazoline as a slimicide.
# A. niger = test: slimicide for pulp and paper mill water systems, A. niger; format: cell-based; conditions: for MIC: Aspergillus niger, read-out: Minimum inhibitory concentration
# Experimental: as §1, §2, §3, §4, §5, §6
# P. aeruginosa = test: slimicide for pulp and paper mill water systems, P. aeruginosa; format: cell-based; conditions: for MIC: Pseudomonas aeruginosa, read-out: Minimum inhibitory concentration
# Experimental: as §1, §2, §3, §4, §5, §6
# Ps. aeruginosa = test: preservative for cutting oil emulsions; format: cell-based; conditions: for MIC: Pseudomonas aeruginosa; for Minimum Inhibitory Concentration: listed as CH3, Cl, Cl
# Experimental: Various aliquots of a 6% solution of the chemical in ethanol were added to cutting oil emulsions prepared by diluting Kutwell 30 cutting oil concentrate 1 to 30 with water. These samples were inoculated with a culture of Ps. aeruginosa and incubated at 28° on a rotary shaker. At weekly intervals the samples were examined for microorganisms and then reinoculated and incubated.
# E. aerogenes = test: slimicide for pulp and paper mill water systems, E. aerogenes; format: cell-based; conditions: for MIC: Klebsiella aerogenes
# Experimental: as §1, §2, §3, §4, §5, §6
# Aureobasidium pullulans = test: preservative for latex paints; format: cell-based; conditions: for zone of inhibition at 0.25 % / zone of inhibition at 0.5 %: Aureobasidium pullulans, 504 h; for Surface (growth on the surface of painted square): none, medium or heavy; for Zone (zone of inhibition): listed as CH3, Cl, Cl, O3SOMe
# Experimental: Various quantities of the chemical were incorporated into a white exterior vinyl acetate paint. Whatman #30 filter paper was painted with one coat of paint on each side. One inch squares were cut and placed in Petri dishes on a malt agar.
# The surface of both the agar and the painted squares were inoculated with a spore suspension of Aureobasidium pullulans. The plates were examined for zones of inhibition and surface growth after three weeks incubation in a humidity chamber at 27°-28°.
# Various quantities of 4,5-dichloro-2-methyl-4-isothiazolin-3-thione were incorporated into a white exterior vinyl acetate paint and tested as described in Example IV.
# four different organisms = test: slimicide for pulp and paper mill water systems, overall; format: cell-based, P. aeruginosa, E. aerogenes, A. niger, P. Piscarium; conditions: four weeks, 28° C.
# Experimental: as §1, §2, §3, §4, §5
# [1] = read-out: Minimum inhibitory concentration, P. Piscarium, week 1, 28° C.
# [2] = read-out: Minimum inhibitory concentration, P. Piscarium, week 2, 28° C.
# [3] = read-out: Minimum inhibitory concentration, P. Piscarium, week 3, 28° C.
# [4] = read-out: Minimum inhibitory concentration, P. Piscarium, week 4, 28° C.
# [5] = 168 h, read-out: Minimum Inhibitory Concentration, cutting oil emulsion, incubation 1 week, 28°
# [6] = 336 h, read-out: Minimum Inhibitory Concentration, cutting oil emulsion, incubation 2 weeks, 28°
# [7] = read-out: Minimum inhibitory concentration, E. aerogenes, week 1, 28° C.
# [8] = read-out: Minimum inhibitory concentration, E. aerogenes, week 2, 28° C.
# [9] = read-out: Minimum inhibitory concentration, E. aerogenes, week 3, 28° C.
# [10] = read-out: Minimum inhibitory concentration, E. aerogenes, week 4, 28° C.
# [11] = read-out: Zone (zone of inhibition), Conc. 0.25% in vinyl acetate paint, three weeks, 27°-28°
# [12] = read-out: Zone (zone of inhibition), Conc. 0.5% in vinyl acetate paint, three weeks, 27°-28°
# [13] = Conc. 0.25% in vinyl acetate paint, three weeks, 27°-28°
# [14] = Conc. 0.5% in vinyl acetate paint, three weeks, 27°-28°
# [15] = 168 h, cutting oil emulsion, incubation 1 week, 28°, read-out: Minimum Inhibitory Concentration
# [16] = 336 h, cutting oil emulsion, incubation 2 weeks, 28°, read-out: Minimum Inhibitory Concentration
# [17] = 504 h, cutting oil emulsion, incubation 3 weeks, 28°, read-out: Minimum Inhibitory Concentration
# [18] = 672 h, cutting oil emulsion, incubation 4 weeks, 28°, read-out: Minimum Inhibitory Concentration
SMILES,MIC (P. piscarium; [1]),MIC (P. piscarium; [2]),MIC (P. piscarium; [3]),MIC (P. piscarium; [4]),"Minimum Inhibitory Concentration (A. niger; A. niger, week 2, 28° C.)","Minimum Inhibitory Concentration (A. niger; A. niger, week 3, 28° C.)","Minimum Inhibitory Concentration (A. niger; A. niger, week 4, 28° C.)",MIC (A. niger),"Minimum Inhibitory Concentration (P. aeruginosa; P. aeruginosa, week 2, 28° C.)","Minimum Inhibitory Concentration (P. aeruginosa; P. aeruginosa, week 3, 28° C.)","Minimum Inhibitory Concentration (P. aeruginosa; P. aeruginosa, week 4, 28° C.)",MIC (P. aeruginosa),MIC (Ps. aeruginosa; [5]),MIC (Ps. aeruginosa; [6]),MIC (E. aerogenes; [7]),MIC (E. aerogenes; [8]),MIC (E. aerogenes; [9]),MIC (E. aerogenes; [10]),zone of inhibition at 0.25 % (Aureobasidium pullulans; [11]),zone of inhibition at 0.5 % (Aureobasidium pullulans; [12]),other results
"Cn1sc(Cl)c(Cl)c1=S [No. 1 (Table VIII), 4,5-Dichloro-2-methyl-4-isothiazolin-3-thione]",< 8 µg/mL,< 8 µg/mL,< 8 µg/mL,16 µg/mL,< 8 µg/mL,< 8 µg/mL,< 8 µg/mL,< 8 µg/mL,16 µg/mL,16 µg/mL,16 µg/mL,16 µg/mL,< 16 µg/mL,62 µg/mL,< 8 µg/mL,< 8 µg/mL,16 µg/mL,16 µg/mL,20 mm,20 mm,"MIC (Ps. aeruginosa; 504 h, read-out: Minimum Inhibitory Concentration, cutting oil emulsion, incubation 3 weeks, 28°): 62 µg/mL; MIC (Ps. aeruginosa; 672 h, read-out: Minimum Inhibitory Concentration, cutting oil emulsion, incubation 4 weeks, 28°): 62 µg/mL; Surface (growth on the surface of painted square) (Aureobasidium pullulans; [13]): no growth; Surface (growth on the surface of painted square) (Aureobasidium pullulans; [14]): no growth"
"C[n+]1sc(Cl)c(Cl)c1Cl [No. 2 (Table I), 2-Methyl-3,4,5-trichloroisothiazolium methylsulfate]",3.9 µg/mL,3.9 µg/mL,3.9 µg/mL,3.9 µg/mL,3.9 µg/mL,3.9 µg/mL,3.9 µg/mL,3.9 µg/mL,7.8 µg/mL,7.8 µg/mL,7.8 µg/mL,7.8 µg/mL,–,–,3.9 µg/mL,3.9 µg/mL,3.9 µg/mL,3.9 µg/mL,–,–,"Minimum Inhibitory Concentration (Ps. aeruginosa; cutting oil emulsion, incubation 1 week, 28°, O3SOMe): < 2 µg/mL; Minimum Inhibitory Concentration (Ps. aeruginosa; cutting oil emulsion, incubation 2 weeks, 28°, O3SOMe): < 2 µg/mL; Minimum Inhibitory Concentration (Ps. aeruginosa; cutting oil emulsion, incubation 3 weeks, 28°, O3SOMe): < 16 µg/mL; Minimum Inhibitory Concentration (Ps. aeruginosa; cutting oil emulsion, incubation 4 weeks, 28°, O3SOMe): < 16 µg/mL; Zone (zone of inhibition) (Aureobasidium pullulans; [13]): 0 mm; Surface (growth on the surface of painted square) (Aureobasidium pullulans; [13]): None; Zone (zone of inhibition) (Aureobasidium pullulans; [14]): > 20 mm; Surface (growth on the surface of painted square) (Aureobasidium pullulans; [14]): None; concentration effective as a slimicide (four different organisms): < 0.01%"
"C[n+]1scc(Cl)c1Cl [No. 22 (Table I), 3,4-Dichloro-2-methylisothiazolium fluorosulfonate]",–,–,–,–,–,–,–,–,–,–,–,–,32 µg/mL,32 µg/mL,–,–,–,–,0 mm,0 mm,"Minimum Inhibitory Concentration (Ps. aeruginosa; cutting oil emulsion, incubation 3 weeks, 28°, H, O3SF): 125 µg/mL; Minimum Inhibitory Concentration (Ps. aeruginosa; cutting oil emulsion, incubation 4 weeks, 28°, H, O3SF): 250 µg/mL"
"C[n+]1sc(Cl)c(C#N)c1Cl [No. 26 (Table I), 4-Cyano-3,5-dichloro-2-methylisothiazolium fluorosulfonate]",–,–,–,–,–,–,–,–,–,–,–,–,–,–,–,–,–,–,–,–,"MIC (Ps. aeruginosa; [15]): < 16 µg/mL; MIC (Ps. aeruginosa; [16]): 125 µg/mL; MIC (Ps. aeruginosa; [17]): 250 µg/mL; MIC (Ps. aeruginosa; [18]): 250 µg/mL; zone of inhibition at 0.25 % (Aureobasidium pullulans; Conc. 0.25% in vinyl acetate paint, three weeks, 27°-28°, read-out: Zone (zone of inhibition)): 0 mm; zone of inhibition at 0.5 % (Aureobasidium pullulans; Conc. 0.5% in vinyl acetate paint, three weeks, 27°-28°, read-out: Zone (zone of inhibition)): 0 mm"
"CN1SC(Cl)=C(Cl)C1=C(C#N)C#N [drawing 12 CH3, Cl, Cl, 4,5-dichloro-3-dicyanomethylene-2-methyl-4-isothiazoline]",–,–,–,–,–,–,–,–,250 µg/mL,250 µg/mL,250 µg/mL,–,–,–,–,–,–,–,–,–,"MIC (P. piscarium; P. Piscarium, week 1, 28° C., read-out: Minimum inhibitory concentration): 250 µg/mL; MIC (P. piscarium; P. Piscarium, week 2, 28° C., read-out: Minimum inhibitory concentration): 250 µg/mL; MIC (P. piscarium; P. Piscarium, week 3, 28° C., read-out: Minimum inhibitory concentration): 250 µg/mL; MIC (P. piscarium; P. Piscarium, week 4, 28° C., read-out: Minimum inhibitory concentration): 500 µg/mL; MIC (A. niger; A. niger, week 1, 28° C.): 250 µg/mL; MIC (A. niger; A. niger, week 2, 28° C.): 500 µg/mL; MIC (A. niger; A. niger, week 3, 28° C.): 500 µg/mL; MIC (A. niger; A. niger, week 4, 28° C.): 500 µg/mL; MIC (P. aeruginosa; P. aeruginosa, week 1, 28° C.): 250 µg/mL; MIC (Ps. aeruginosa; [15]): 125 µg/mL; MIC (Ps. aeruginosa; [16]): 125 µg/mL; MIC (Ps. aeruginosa; [17]): 250 µg/mL; MIC (Ps. aeruginosa; [18]): 250 µg/mL; Minimum Inhibitory Concentration (E. aerogenes; E. aerogenes, week 2, 28° C.): 250 µg/mL; Minimum Inhibitory Concentration (E. aerogenes; E. aerogenes, week 3, 28° C.): 250 µg/mL; Minimum Inhibitory Concentration (E. aerogenes; E. aerogenes, week 4, 28° C.): 250 µg/mL; MIC (E. aerogenes; E. aerogenes, week 1, 28° C., read-out: Minimum inhibitory concentration): 250 µg/mL"
